Data reported in PubChem BioAssay (NCI).
Several values for one entry are separate records, joined by “and”; a condition that tells them apart may be missing. Identical values can stand only once.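 Five concentrations, 48 hours, 96-well plates. The concentration for 50% growth inhibition is given as GI50. TGI: concentration producing complete growth inhibition.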

What was measured:
Assay in all cases: DTP human tumour cell line panel, 48 h
NCI-H23 lung = test system: NCI-H23 lung
786-0 renal = test system: 786-0 renal
SNB-19 CNS = test system: SNB-19 CNS
NCI-H522 lung = test system: NCI-H522 lung
U251 CNS = test system: U251 CNS
SF-539 CNS = test system: SF-539 CNS
OVCAR-4 ovarian = test system: OVCAR-4 ovarian
HCT-116 colon = test system: HCT-116 colon
SK-MEL-2 melanoma = test system: SK-MEL-2 melanoma
UACC-62 melanoma = test system: UACC-62 melanoma
OVCAR-8 ovarian = test system: OVCAR-8 ovarian
SK-OV-3 ovarian = test system: SK-OV-3 ovarian
EKVX NSCLC = test system: EKVX NSCLC

SMILES | TGI (NCI-H23 lung) [µM] | TGI (786-0 renal) [µM] | TGI (SNB-19 CNS) [µM] | TGI (NCI-H522 lung) [µM] | TGI (U251 CNS) | TGI (SF-539 CNS) [µM] | TGI (OVCAR-4 ovarian) [µM] | TGI (HCT-116 colon) [µM] | TGI (SK-MEL-2 melanoma) [µM] | TGI (UACC-62 melanoma) [µM] | TGI (OVCAR-8 ovarian) [µM] | TGI (SK-OV-3 ovarian) [µM] | TGI (EKVX NSCLC) [µM] | GI50 (U251 CNS) | GI50 (HCT-116 colon) [µM] | GI50 (UACC-62 melanoma) [µM] | GI50 (OVCAR-8 ovarian) [µM]
O=C(c1ccccc1)c1c(CNCc2ccccc2)n(C(=O)c2ccccc2)c2ccccc12 | > 100 | > 100 | > 100 | 81.8 | > 100 µM | > 100 | > 100 | > 100 | > 100 | > 100 | > 100 | – | – | – | – | – | –
COc1cc(C=O)c(-c2cc3c(cc2C=O)OCO3)c(OC)c1OC | 222 | > 290 | > 290 | 119 | > 290 µM | 188 | – | 131 | 190 | > 290 | > 290 | > 290 | > 290 | – | – | – | –
CCN(CC)CCOc1ccc(C(=C2CCCCC2)c2ccc(OCCN(CC)CC)cc2)cc1 | 3.56 | 2.69 | 4.03 | 3.29 | 3.1 µM | 2.96 | 4.77 | 2.54 | 3.52 | – | 3.13 | 3.52 | 3.36 | – | – | – | –
C/C(=N/N)c1ccc2[nH]c3c(C)cc([N+](=O)[O-])c(C)c3c2c1 | – | 22.2 | 31.8 | 36.7 | – | 29.3 | 38.3 | 17.8 | 26.3 | – | 26.5 | – | 66.1 | – | – | – | –
CC1=NN(C(=O)Cc2ccccc2)C(=O)/C1=C\c1ccco1 | > 100 | > 100 | > 100 | > 100 | – | > 100 | > 100 | > 100 | > 100 | – | > 100 | – | > 100 | – | – | – | –
Cc1ccc(C2=C(c3ccccc3)C(O)(c3ccc(C)cc3)C(c3ccccc3)=C2c2ccc(C)cc2)cc1 | 40.2 | > 100 | > 100 | – | > 100 µM | > 100 | > 100 | > 100 | > 100 | > 100 | > 100 | > 100 | > 100 | – | – | – | –
CN(C)CCC1(C2=CCCC2)CC/C(=C\c2ccccc2)C1=O (stereo not drawn) | 46.9 | 27.8 | 28.3 | 27.4 | 30.3 µM | 30.5 | 31 | 35.4 | 31 | 26.6 | 29.6 | – | 25.7 | – | – | – | –
CC(=O)Nc1ccc(-c2nc3ccccc3s2)cc1O | > 100 | > 100 | > 100 | 9.85 | > 100 µM | – | > 100 | > 100 | > 100 | 83.1 | > 100 | – | – | – | – | – | –
CCNCCCCNCC | > 3750 | – | > 3750 | > 3750 | > 3750 µM | > 3750 | > 3750 | > 3750 | > 3750 | > 3750 | > 3750 | > 3750 | > 3750 | – | – | – | –
Cc1nc2c(ncn2CCO)c(=O)[nH]1 | > 100 | > 100 | > 100 | > 100 | > 100 µM | > 100 | > 100 | > 100 | – | > 100 | > 100 | > 100 | > 100 | – | – | – | –
O=C1C[C@H]2[C@H](c3ccc(Br)cc3)[C@H]3C(=O)c4ccccc4NC(=O)[C@@H]3[C@@]2(O)c2ccccc2N1 | 38.9 | 99.2 | > 100 | 69.3 | > 100 µM | 54.7 | > 100 | 33.1 | – | 61.5 | > 100 | 78.8 | > 100 | – | – | – | –
O=C(CSc1nnc(-c2ccc(N=Cc3ccc(Cl)cc3)cc2)o1)Nc1cccc(Cl)c1 | > 100 | > 100 | > 100 | > 100 | > 100 µM | – | > 100 | > 100 | > 100 | > 100 | > 100 | > 100 | > 100 | – | – | – | –
N#Cc1c2nc3ccccc3nc2n2ccc3ccccc3c12 | > 100 | > 100 | > 100 | > 100 | > 100 µM | > 100 | > 100 | > 100 | > 100 | – | > 100 | > 100 | > 100 | – | – | – | –
COc1cc([C@@H]2c3cc4c(c(O)c3C[C@H]3COC(=O)[C@@H]32)OCO4)cc(OC)c1O | 0.637 | – | > 200 | – | 0.00608 µM and < 0.02 µM | – | > 200 | > 20 | 6.56 | > 200 | > 200 | – | > 92.8 | 0.00228 µM and < 0.02 µM | 0.0039 | 0.00454 | 0.0053
CN1OC2OC(=O)OC2[C@H]1[C@H]1O[C@H](c2ccccc2)OC1(C)c1cc(OC(=O)c2ccccc2)ccc1OC(=O)c1ccccc1 (stereo partly drawn) | > 50 | > 50 | > 50 | > 50 | > 50 µM | > 50 | > 50 | > 50 | > 50 | – | > 50 | > 50 | > 50 | – | – | – | –
CC(C)(O)[C@H](CCO)O[Si](c1ccccc1)(c1ccccc1)C(C)(C)C | – | – | 19.5 | 20.1 | 24.9 µM | 27.3 | – | 17.6 | 28.4 | 24.1 | 23.8 | 24.5 | 29.6 | – | – | – | –
